Results taken from patent US11666559B2, “Spiro-lactam compounds, process and uses thereof” (UNIVERSIDADE DE COIMBRA, priority 2017, dated 2023).
Entries after “also recorded” stand apart in the source; their conditions may differ.

Test: Acute toxicity assay in Wistar rats
Description: Wistar rats (n=5) were inoculated IP with different doses of BSS-593 and effects on liver, renal and lipid homeostasis were assessed by dosing different biochemical parameters 48 h after inoculation. ALT, AST and LDH were determined as markers of liver function and serum level of creatinine were determined as marker of renal function. Serum levels of total cholesterol, low-density cholesterol (LDL), high-density cholesterol (HDL) and triglycerides were measured to evaluate the effect of the drugs on lipid homeostasis. Results were expressed as the means with their standard errors and were compared using a one-factorial ANOVA test, followed by a Bonferroni's multi-comparison post hoc test.
In an embodiment, the acute toxicity assay of spiro-β-lactam BSS-593 was carried out. […] Control animals were administered with sterile saline (1 mL/kg; n=4). […] After blood collection animals were necropsied to identify macroscopic signs of organ injury.
In an embodiment, an acute toxicity assay was carried out. Female Wistar (220-250 g) rats were randomly divided in 4 groups. […] A fourth group of control animals was administered with sterile saline (B. Braun, Portugal) (1 mL/kg; n=4). Animals received the test drug via the intraperitoneal route and were monitored regularly for visible stress or toxicity signs such as death. All rats were anesthetized with sodium pentobarbital (Eutasil, 60 mg/kg i.p; Sanofi VeterinAria, Alges, Portugal) prior to intracardiac puncture for blood collection. […] Blood was collected into a serum SST gel and clot activator tube (Becton Dickinson, Le Pont de Claix, France) and was centrifuged (1000×g for 10 min at room temperature) to separate serum. Serum was analyzed within 24 h on a laboratory bench Clinical Chemistry Analyser c111 (Roche Diagnostics, Lda). Uver injury was assessed by measuring the rise in the serum levels of alanine aminotransferase (ALT, a specific marker for hepatic parenchymal injury), aspartate aminotransferase (AST, a nonspecific marker for hepatic injury) and lactate dehydrogenase (LDH, a marker of nonspecific cellular injury). Serum levels of creatinine was determined as marker of renal injury. Serum levels of total cholesterol, low-density cholesterol (LDL), high-density cholesterol (HDL) and triglycerides were also measured to evaluate the effect of the drugs on lipid homeostasis. Results were expressed as the means with their standard errors and were compared using a one-factorial ANOVA test, followed by a Bonferroni's multi-comparison post hoc test. A P value <0.05 was considered to be statistically significant.

[1] = single intraperitoneal dose 0.1, 1 or 10 mg/kg, 48 h

Compound: COC(=O)C1=C[C@@]2(N=N1)C(=O)N1[C@@H](C(=O)O)C(C)(C)S[C@@H]12 [BSS-593, (2,3′R,5R)-5′-(methoxycarbonyl)-3,3-dimethyl-7-oxo-4-thia-1-azaspiro[bicyclo[3.2.0]heptane-6,3′-pyrazole]-2-carboxylic acid]
- time to anaesthesia (sodium pentobarbital) between treated and control animals (intraperitoneal 0.1, 1 or 10 mg/kg, reflects apparent CNS effects): no significant differences
- abnormal behavior or signs of toxicity [1]: No abnormal behavior or signs of abnormal toxicity were noticed
- biochemical markers of liver function, kidney function and general cell injury (ALT, AST, creatinine, LDH in the blood) vs control animals [1]: no significant differences; also recorded: does not induce liver and renal injury
- blood lipid profiles (cholesterol, LDL, HDL and TG) [1]: no changes; also recorded: does not alter lipid metabolism
- macroscopic signs of organ injury at necropsy (single intraperitoneal dose 0.1, 1 or 10 mg/kg, after blood collection): No significant differences
- animal survival rate (single intraperitoneal dose 0.1, 1 or 10 mg/kg, test period of 48 h): 100%
